Paper PMC5349917, “Octreotide-periplocymarin conjugate prodrug for improving targetability and anti-tumor efficiency: synthesis, in vitro and in vivo evaluation” (Oncotarget, 2016)
Where “and” joins values, the source holds several entries; their conditions need not be identical. Equal values may be shown once. Read-outs that look alike come from different tables or passages of the source.

Assays:
[1] = tested on: MCF-7 breast cancer cells; test: MTT growth inhibition assay, MCF-7 cells; assay type: cell-based, human
Method: (§1) To test the antitumor activities of the synthesized compounds, we evaluated antiproliferative activities of these compounds against human cancer cell lines (Breast cancer cells, MCF-7; Hepatoma cells, HepG2) and human normal cell line (Liver cells, L-02), using the MTT assay as reported in previous studies. Both cell lines were obtained from the Cell Bank of Academy of Science (Shanghai, China).
(§2) After incubation, 20 μL of MTT (5 mg/mL in pH 7.4 PBS) was added to each well, and the plates further incubated at 37°C for 4 h. The medium was then replaced with 100 μL DMSO. The optical density was measured by Microplate Reader (Thermo Electron Corporation) at 595 nm.
(§3) Statistical significance of differences between treatment groups in the biodistribution and anti-tumor effect were assessed using an unpaired Student’s t-test. A p-value of less than 0.05 was considered significant.

L-02 cells = test: cells; assay type: cell-based, human
Method: as §1
(§4) In brief, the cells were seeded into a 96-well plate at a density of 2.5 × 10^4 cells/well and incubated with OCT modified PPMs containing various concentrations (ranging from 0.001 to 50.0 μM) for 72 h. After incubation, 20 μL of MTT (5 mg/mL in pH 7.4 PBS) was added to each well, and the plates further incubated at 37°C for 4 h. The medium was then replaced with 100 μL DMSO. The optical density was measured by Microplate Reader (Thermo Electron Corporation) at 595 nm. The cell inhibition rate (IR) was calculated as follows: IR (%) = 1−A/A1×100%, where A refers to the average absorbance intensity of treated group and A1 refers to average absorbance intensity of untreated control group (the vehicle control group).
as §3, with “significant. 50% inhibiting concentration (IC50) of the sample was calculated with the aid of Curve-Expert software (version 1.3; Daniel G. Hyams, Hixson, TN, USA).” for “significant.”

HepG2 hepatoma cells = test: MTT growth inhibition assay, HepG2 cells; assay type: cell-based, human
Method: as §1, §2, §3

[2] = tested on: MFC murine gastric carcinoma cells; test: In vitro cytotoxicity on MFC cells; assay type: cell-based, mouse; settings: 72 h of incubation
Method: as §4
as §3, with “significant. 50% inhibiting concentration (IC50) of the sample was calculated with the aid of Curve-Expert software (version 1.3; Daniel G. Hyams, Hixson, TN, USA).” for “significant.”

[3] = tested on: PC3, U937, HCT-8, Bel-7402, BGC823, A549 and A2780 cell lines; design: method as in PMID 17366373; settings: PC3, U937, HCT-8, Bel-7402, BGC823, A549 and A2780 cell lines in vitro; read-out: IC50 values, inhibition of proliferation; cited from earlier work
[4] = Tissue distribution in H22 cell tumor bearing mice; assay type: in vivo, mouse; settings: for AUC0–t Heart / AUC0–t Kidney / AUC0–t Liver / AUC0–t Lung / AUC0–t Plasma / AUC0–t Spleen / AUC0–t Tumor: level of PPM, 4 mg/kg (PPM or equivalent), H22 tumor-bearing mice, 0-4 h
Method: Male Kunming strain mice (KM, 18–22 g) were purchased from Qinglongshan, Experimental Animal Center (ZhenJiang, China). Animal experiments were conducted under principles of good laboratory animal care, and approved by the Ethical Committee for Laboratory Animals Care and Use of Jiangsu University. Mouse […] (H22) cells were purchased from the Cell Bank of Academy of Science (Shanghai, China).
Approximately 1 × 10^7 H22 cells suspended in PBS (pH 7.4) were inoculated subcutaneously into the right hind leg. When the tumor volume reached 1000 mm^3 (around 7 days), mice were intravenously injected with PPM (at a dose of 4 mg/kg) or its equivalent OCT(Phe)-S-PPM via the tail vein (n = 5). At indicated time periods (0.16, 0.50, 1, 2, 3 and 4 h) after injection, blood samples were collected and mice were then sacrificed by cervical dislocation to obtain the heart, liver, spleen, lung, kidney and tumor tissues. All the samples were then washed with ice-cold saline to remove the excess fluid, weighed and stored at –20°C. The thawed tissue was homogenized in 0.9% sodium chloride solution to obtain 0.2 g/mL tissues homogenate. This was followed by the addition of bufalin (50 μl, 5 μg/ml) to the tissues (0.2 ml) with uniform mixing. Ethyl acetate (1.2 ml) was then added to the resulting mixture and thoroughly mixed for 5 min. The total supernatant or organic layer was separated by centrifugation at 3000 rpm for 10 min and transferred to a clean tube. The supernatant was dried with nitrogen at 40°C on water bath to obtain the residue, which was later reconstituted in a 0.2 mL of mobile phase solution. After centrifugation at 20,000 rpm for 10 min, the supernatant was analyzed by HPLC. The mobile phase consisted of acetonitrile and water (38:62, v/v, pH = 3.0, adjusted by H3PO4). The flow rate was 1.0 mL·min^-1 and the detection wavelength was 220 nm. Other conditions included injection volume (20 μl), column temperature (25°C) and detection sensitivity (0.02 AUFS). The retention time of PPM and Bufalin was about 7.2 and 10.8 min, respectively. The calibration curve was A = 0.9958C-0.0299 (A represented the peak area ratio of PPM and Bufalin, while C was the concentration of PPM) and was linear in the range of 0.05–10 μg/mL with a correlation coefficient of R = 0.9995.

H22 tumor = test: Anti-tumor efficacy in H22 tumor-bearing mice; assay type: in vivo, mouse; settings: H22 tumor Kunming mice, 5 times; for final tumor weight: control 0.876 ± 0.154 g
Method: (§5) Treatment was initiated when the tumor diameter reached about 0.5 cm (around 3 days). Mice were randomly assigned to four groups (n = 6) namely the control, PPM, OCT and OCT(Phe)-S-PPM groups. Treatment were administered via tail vein at a dose of 4 mg/kg every other day during the experimental period for 5 times. The control group received corresponding amounts of blank injection (ethanol/Cremophor EL, v/v, 1/1, diluted 20 times with normal saline before the injection). Their weights were measured daily and tumor size was measured (major and minor axis) with a vernier caliper thereafter and at the end of the experiment. Tumor volumes were calculated using the formula: a^2×b×0.52, where a and b refer to the longest and shortest diameter, respectively. Tumor tissues were removed from the sacrificed mice and weighed to calculate the tumor inhibition rate (TIR (%) = (1-Wt/Wc) × 100%, where Wt and Wc are the mean tumor weights of the treated groups and the negative control group, respectively. Moreover, the heart, liver and tumor were rinsed with normal saline, fixed in 10% formalin, and then embedded in paraffin blocks for later slicing and staining with hematoxylin and eosin (H&E). Finally, the sections were observed under a microscope for histopathological evaluations

[5] = Toxicity in H22 tumor-bearing mice (serum AST, ALT, ALP, body weight, heart and liver histopathology); assay type: in vivo, mouse; settings: for pathological images of heart sections / pathological images of liver sections: HE staining, after treatment for ten days; for ALT / AST / ALP: serum, mice sacrificed 24 h after the last administration; for ALT: control 26.86 ± 6.44; for AST: control 50.55 ± 8.82; for ALP: control 112.06 ± 14.29
Method: as §5

[6] = cited from earlier work
[7] = MTT, 72 h of incubation, read-out: IC50 MCF-7

Compound | IC50 [1, 7] | AUC0–t Heart ([4]; i.v.) | AUC0–t Kidney ([4]; i.v.) | AUC0–t Liver ([4]; i.v.) | AUC0–t Lung ([4]; i.v.) | AUC0–t Plasma ([4]; i.v.) | AUC0–t Spleen ([4]; i.v.) | AUC0–t Tumor ([4]; i.v., 4 mg/kg) | final tumor weight (H22 tumor; 4 mg/kg i.v. every other day) | pathological images of heart sections [5] | pathological images of liver sections [5] | ALT [5] | AST [5] | ALP [5] | also measured
C[C@]12CC[C@H](O)C[C@@]1(O)CC[C@@H]1[C@@H]2CC[C@]2(C)[C@@H](C3=CC(=O)OC3)CC[C@]12O [periplogenin] | 902 nM |  |  |  |  |  |  |  |  |  |  |  |  |  | IC50 (L-02 cells; MTT, 72 h of incubation, read-out: IC50 L-02): 406 nM; IC50 (HepG2 hepatoma cells; MTT, 72 h of incubation, read-out: IC50 HepG2): 580 nM; IC50 [2]: 509 nM
CO[C@H]1C[C@H](O[C@H]2CC[C@]3(C)[C@H]4CC[C@]5(C)[C@@H](C6=CC(=O)OC6)CC[C@]5(O)[C@@H]4CC[C@]3(O)C2)O[C@H](C)[C@H]1O [PPM, periplocymarin] | 35.9 nM | 1.692 ± 0.283 µg·h/g | 1.773 ± 0.393 µg·h/g | 1.967 ± 0.321 µg·h/g | 0.457 ± 0.092 µg·h/g | 0.812 ± 0.143 µg·h/g | 0.257 ± 0.086 µg·h/g | 0.614 µg·h/g and 0.614 ± 0.128 µg·h/g | 0.423 ± 0.087 g | irregularly arranged myocardial cells and slightly lymphocyte infiltration in the interstitial tissue of the myocardium | obvious soma shrinking, dissociation of hepatic cord, dilation of hepatic sinusoids and lymphocytosis | 62.43 ± 13.52 U/L | 68.21 ± 8.95 U/L | 184.23 ± 21.48 U/L | IC50 ([1]; Homo sapiens, MCF7, 72 h, MTT, 72 h of incubation, read-out: IC50 MCF-7): 35.9 nM; IC50 [3]: 20 to 290 nM; Kp at 15 min ([4]; male, Kunming, mouse, heart / blood, iv, 15 min post injection, i.v. 4 mg/kg, read-out: ratio of the PPM concentration in heart and blood): 1.18; Kp at 1 h ([4]; male, Kunming, mouse, heart / blood, iv, 1 h post injection, i.v. 4 mg/kg, read-out: ratio of the PPM concentration in heart and blood): 5.21; concentration at 15 min ([4]; male, Kunming, mouse, tumor, iv, 4 mg/kg, 15 min post injection): 917 ng/g; IC50 (L-02 cells; Homo sapiens, L02, MTT, 72 h of incubation, read-out: IC50 L-02): 128 nM; tumor inhibition rate (H22 tumor; 4 mg/kg i.v. every other day, from tumor weights): 51.71%; IC50 (HepG2 hepatoma cells; Homo sapiens, HepG2, MTT, 72 h of incubation, read-out: IC50 HepG2): 138 nM; average body weight ([5]; during treatment, vs control group, P < 0.01): less than that of the control group; IC50 ([2]; Mus musculus): 38.4 nM
CO[C@H]1C[C@H](O[C@H]2CC[C@]3(C)[C@H]4CC[C@]5(C)[C@@H](C6=CC(=O)OC6)CC[C@]5(O)[C@@H]4CC[C@]3(O)C2)O[C@H](C)[C@H]1OC(=O)CCC(=O)N[C@H](Cc1ccccc1)C(=O)N[C@H]1CSSC[C@@H](C(=O)N[C@H](CO)[C@@H](C)O)NC(=O)[C@H]([C@@H](C)O)NC(=O)[C@H](CCCCN)NC(=O)[C@@H](Cc2c[nH]c3ccccc23)NC(=O)[C@H](Cc2ccccc2)NC1=O [OCT(Phe)-S-PPM] |  | 1.315 ± 0.239 µg·h/g | 1.152 ± 0.132 µg·h/g | 1.441 ± 0.202 µg·h/g | 0.839 ± 0.083 µg·h/g | 1.409 ± 0.196 µg·h/g | 0.632 ± 0.079 µg·h/g | 1.338 µg·h/g and 1.338 ± 0.195 µg·h/g | 0.287 ± 0.069 g | no evident differences from the control group | no evident differences from the control group | 23.25 ±5.76 U/L | 56.83 ± 7.34 U/L | 124.90 ± 27.23 U/L | concentration in tumor tissue ([4]; 15 min post injection, i.v.): 0.168 µg/g; maximum concentration in tumor tissue ([4]; i.v., reached at 1 h): 0.618 µg/g; AUC0–t in plasma, fold higher than that of PPM ([4]; i.v., vs PPM): 1.73 fold; AUC0–t in tumor, fold higher than that of PPM ([4]; i.v., vs PPM): 2.17 fold; total AUC0~t of heart, fold lower than that of PPM ([4]; i.v., vs PPM, P < 0.01): 0.77 fold; total AUC0~t of liver, fold lower than that of PPM ([4]; i.v., vs PPM, P < 0.01): 0.73 fold; reduction of tumor volume compared to PPM (average) (H22 tumor; equimolar dose of PPM 4 mg/kg, i.v. every other day): 1.56 fold; enhancement of cytotoxicity of PPM when conjugated with Phe-OCT (HepG2 hepatoma cells; HepG2, vs PPM): 1.88 fold
C[C@@H](O)[C@@H]1NC(=O)[C@H](CCCCN)NC(=O)[C@@H](Cc2c[nH]c3ccccc23)NC(=O)[C@H](Cc2ccccc2)NC(=O)[C@@H](NC(=O)[C@H](N)Cc2ccccc2)CSSC[C@@H](C(=O)N[C@H](CO)[C@@H](C)O)NC1=O [OCT, Octreotide] |  |  |  |  |  |  |  |  | 0.765 ± 0.126 g |  |  | 34.48 ± 6.28 U/L | 51.25 ± 5.2 U/L | 129.48 ± 18.54 U/L | IC50 ([1]; 72 h): > 50000 nM; plasma half-life, times more than endogenous somatostatin [6]: 30 times; IC50 (L-02 cells; 72 h): > 50000 nM; IC50 (HepG2 hepatoma cells; 72 h): > 50000 nM
Somatostatin [somatostatins] |  |  |  |  |  |  |  |  |  |  |  |  |  |  | half-life in circulation ([6]; in vivo): 1 to 3 min
